# Reference: US5116846A, “N-aralkyl piperidine derivatives as psychotropic drugs” (priority 1990, dated 1992)
# Assays:
# sigma receptor = conditions: Tam, Eur. Pharmacol, 109:33-41 (1985); cited from earlier work
# [1] = Isolation-Induced Aggression in Mice; format: in vivo, mouse (male Balb/c)
# Experimental: Male Balb/c mice (Charles River) were used. […] Isolated mice failing to consistently attack an intruder were eliminated from the colony.
# Drug testing was carried out by treating the isolated mice with test drugs or standards. Fifteen minutes after dosing with test drugs by the oral route, one isolated mouse was removed from its home cage and placed in the home cage of another isolate. Scoring was a yes or no response for each pair. A maximum of 3 minutes was allowed for an attack and the pair was separated immediately upon an attack. Selection of home cage and intruder mice was randomized for each test. Mice were treated and tested twice a week with at least a 2 day washout period between treatments.
# [2] = (+)-N-Allylnormetazocine-Induced Turning Behavior in Rats; format: in vivo, rat (male Sprague-Dawley); conditions: test drug p.o. or s.c. 20 minutes before testing; (+)-N-allylnormetazocine 4.0 mg/kg s.c.; class symbols not defined
# Experimental: (+)-N-Allylnormetazocine-Induced Turning Behavior in Rats
# Male Sprague-Dawley rats (CDlCR, Charles River), weighing 190-290 g, were used for surgery. In order to spare […] neurons, rats were injected with 25 mg/kg imipramine i.p. 30 minutes before surgery. The rats were anesthetized with a 1:1.2 ratio mixture of Xylazine:Ketamine given 0.1 mL/100 g body weight i.m. A Ringers-Wydaze (100:0.01) solution was given to prevent dehydration. Dopamine was depleted in the right striatum by injecting the neurotoxin 6-hydroxydopamine (6-OHDA) into the substantia nigra of the right cerebral hemisphere. Five mg of 6-OHDA was dissolved in 5 mL of a 0.04% ascorbic acid solution which had been deoxygenated with nitrogen. Five μL of the 6-OHDA solution was injected into the substantia nigra through a 26 gauge needle over a five minute period. […]
# Rotation rate and direction were determined with Coulbourn Instruments Rotometry Monitors. Clockwise and counter clockwise rotations were recorded at 30 and 60 minute intervals. […]
# The data were analyzed with an analysis of variance statistical test and individual comparisons of each dose of test drug to control were made with Dunnett's multiple range test. The ED50 was calculated with a Litchfield and Wilcoxon test using percent of control values. […]
Compound,affinity for the sigma receptor (sigma receptor),"Inhibition of Isolation-induced Aggression ([1]; oral, fifteen minutes after dosing, class symbols not defined)",Inhibition of Isolation-induced Aggression ([1]; po),Inhibition of (+)-N-Allylnormetazocine Induced Turning [2]
"c1ccc(C2(N3CCCCC3)CCCCC2)cc1 [PCP, phencyclidine]",significant affinity for the sigma receptor,–,–,–
"O=C(CCCN1CCC(O)(c2ccc(Cl)cc2)CC1)c1ccc(F)cc1 [Haloperidol, haloperidol]",–,potent activities in inhibiting the isolation-induced aggressive behavior,+++,potently antagonized
